# Source: the OPERA property sets (Mansouri et al. 2018)
row,Compound,logP
1,CC(C)COC(=O)C=Cc1ccc([N+](=O)[O-])o1,3.14
2,COC(=O)C(=Cc1ccc([N+](=O)[O-])o1)[N+](=O)[O-],1.6
3,C=Cc1ccc([N+](=O)[O-])o1,1.61
4,CCOC(=O)C(=Cc1ccc([N+](=O)[O-])o1)C(=O)OCC,2.5
5,COC(=O)C(=Cc1ccc(C)o1)[N+](=O)[O-],2.44
6,CCC(C)OC(=O)C=Cc1ccc([N+](=O)[O-])o1 (stereo unspecified),3.09
7,O=[N+]([O-])c1ccc(C=CBr)o1,2.45
8,CCCCOC(=O)C=Cc1ccc([N+](=O)[O-])o1,2.83
9,COC(=O)C(=Cc1ccc(I)o1)[N+](=O)[O-],3
10,CCCCNC(=O)C=Cc1ccc([N+](=O)[O-])o1,2.36
11,O=[N+]([O-])c1ccc(C=CS(=O)(=O)c2ccccc2)o1,1.88
12,N#CC=Cc1ccc([N+](=O)[O-])o1,1.05
13,CC(C)(C)CNC(=O)C=Cc1ccc([N+](=O)[O-])o1,2.61
14,COC(=O)C(=Cc1ccco1)[N+](=O)[O-],1.88
15,COC(=O)C(=Cc1ccc(C(=O)OC)o1)[N+](=O)[O-],1.87
16,CCCCCOC(=O)C=Cc1ccc([N+](=O)[O-])o1,3.4
17,O=[N+]([O-])C=Cc1ccc([N+](=O)[O-])o1,1.3
18,COC(=O)C(=Cc1ccc(Br)o1)[N+](=O)[O-],2.74
19,CCCOC(=O)C=Cc1ccc([N+](=O)[O-])o1,2.67
20,CCCNC(=O)C=Cc1ccc([N+](=O)[O-])o1,1.86

# The next lines start with the values.
row,logP,Compound
1,1.65,COC(=O)C=Cc1ccc([N+](=O)[O-])o1
2,0.68,O=C(O)C=Cc1ccc([N+](=O)[O-])o1
3,3.06,CC(C)(C)OC(=O)C=Cc1ccc([N+](=O)[O-])o1
4,0.82,CN(C)C(=O)C=Cc1ccc([N+](=O)[O-])o1
5,2.64,CC(C)OC(=O)C=Cc1ccc([N+](=O)[O-])o1
6,2.33,CC(C)(C)NC(=O)C=Cc1ccc([N+](=O)[O-])o1
7,2.1,CCOC(=O)C=Cc1ccc([N+](=O)[O-])o1
8,1.39,CCNC(=O)C=Cc1ccc([N+](=O)[O-])o1
9,0.98,CNC(=O)C=Cc1ccc([N+](=O)[O-])o1
10,2.23,CC(C)CNC(=O)C=Cc1ccc([N+](=O)[O-])o1
11,2.28,CCC(C)NC(=O)C=Cc1ccc([N+](=O)[O-])o1 (stereo unspecified)
